Holding throughout (type): cell-based
The target in test [1] is T1, 5-lipoxygenase (Homo sapiens, UniProt P09917).
T1 construct: Blood is obtained in 50-100 ml quantities from male donors; endogenous in cells; host or cells: human whole blood (leukocytes) from male donors
T1 sequence (P09917 1-674): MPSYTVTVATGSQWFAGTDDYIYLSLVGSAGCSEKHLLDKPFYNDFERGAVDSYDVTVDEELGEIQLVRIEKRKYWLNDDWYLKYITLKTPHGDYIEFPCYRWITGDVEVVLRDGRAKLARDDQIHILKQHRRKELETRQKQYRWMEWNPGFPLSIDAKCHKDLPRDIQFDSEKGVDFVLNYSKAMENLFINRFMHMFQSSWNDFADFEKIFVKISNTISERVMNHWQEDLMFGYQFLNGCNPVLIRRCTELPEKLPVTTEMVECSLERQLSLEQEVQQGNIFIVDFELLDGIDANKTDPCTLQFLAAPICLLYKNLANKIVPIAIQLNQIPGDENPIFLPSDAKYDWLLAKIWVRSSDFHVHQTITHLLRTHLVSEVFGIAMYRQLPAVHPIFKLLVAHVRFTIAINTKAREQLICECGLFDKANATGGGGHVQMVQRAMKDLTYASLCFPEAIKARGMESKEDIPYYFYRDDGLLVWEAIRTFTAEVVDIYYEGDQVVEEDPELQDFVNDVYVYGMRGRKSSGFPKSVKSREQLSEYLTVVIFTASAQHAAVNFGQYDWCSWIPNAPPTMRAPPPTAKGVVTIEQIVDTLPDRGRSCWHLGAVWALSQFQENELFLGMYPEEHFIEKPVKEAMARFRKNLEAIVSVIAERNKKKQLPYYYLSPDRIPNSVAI
Description: inhibition of 5-lipoxygenase in human whole blood (LTB4). As for the experimental part:
The assay of this Example measures the ability of the compounds tested to inhibit 5-lipxygenase in human whole blood.
Blood is obtained in 50-100 ml quantities from male donors. White blood cell counts and differentials are made. Two ml of blood are placed in a 15 ml polypropylene test tube. Compounds are solubilized in dimethylsulfoxide and diluted 1:10 in 10% bovine serum albumin in phosphate buffered saline, pH 7.4 resulting in a final dimethylsulfoxide concentration of 0.1% in the blood. Then, compounds are added to the blood in a shaking water bath at 37° C. for 10 minutes prior to the addition of 30 μM calcium ionophore (A23187; Sigma). After ionophore administration, whole blood samples are mixed and incubated for 20 minutes at 37° C. in a shaking water bath. Incubation is terminated by placing samples in an ice bath and immediately adding ethylene glycol-bis-(β-aminoethyl ether)-N,N,N',N'-tetraacetic acid (10 mM). Samples are mixed and centrifuged at 1200×g for 15 minutes at 4° C. Preparation of samples for evaluation by RIA or ELISA is carried out by the following protocol. Plasma is removed from sample tubes, placed in 15 ml polypropylene test tubes containing 8 ml methanol, and then vortexed to precipitate protein. Samples are stored at -70° C. overnight. The next day, samples are centrifuged at 200×g for 15 minutes at 4° C. to pellet the precipitate. Samples are dried in a Savant speed vac concentrator, reconstituted to original volume with ice cold RIA or ELISA buffer, and stored at -70° C. until assayed. The assay for eicosanoids (LTB4, TxB2, and PGE2) is performed as described by the manufacturer of the [^3 H]-RIA kit or ELISA kit (LTB4 -Amersham, TxB2 and PGE2 - Caymen Chemical).
The total eicosanoid level in 2 ml of blood is calculated and reported as ng/10^6 neutrophils. Significance is determined by a one-way analysis of variance with least significant difference (LSD) comparisons to control (p≤0.05) and IC50 's (μM) are determined by regression analysis (Finney, 1978). Drug effects are expressed as percent change form control values.
Compounds tested in vitro are solubilized in dimethylsulfoxide and diluted 1:10 in 10% bovine serum albumin in phosphate buffer saline resulting in a final dimethylsulfoxide concentration of 0.1% in the blood.

For test [2], the target named is T2, 5-lipoxygenase (Rattus norvegicus, UniProt P12527).
T2 construct: Peritoneal PMN are obtained from female Wistar rats (150-250 g); endogenous in cells; host or cells: rat glycogen-elicited peritoneal polymorphonuclear leukocytes, intact
T2 sequence (P12527 1-673): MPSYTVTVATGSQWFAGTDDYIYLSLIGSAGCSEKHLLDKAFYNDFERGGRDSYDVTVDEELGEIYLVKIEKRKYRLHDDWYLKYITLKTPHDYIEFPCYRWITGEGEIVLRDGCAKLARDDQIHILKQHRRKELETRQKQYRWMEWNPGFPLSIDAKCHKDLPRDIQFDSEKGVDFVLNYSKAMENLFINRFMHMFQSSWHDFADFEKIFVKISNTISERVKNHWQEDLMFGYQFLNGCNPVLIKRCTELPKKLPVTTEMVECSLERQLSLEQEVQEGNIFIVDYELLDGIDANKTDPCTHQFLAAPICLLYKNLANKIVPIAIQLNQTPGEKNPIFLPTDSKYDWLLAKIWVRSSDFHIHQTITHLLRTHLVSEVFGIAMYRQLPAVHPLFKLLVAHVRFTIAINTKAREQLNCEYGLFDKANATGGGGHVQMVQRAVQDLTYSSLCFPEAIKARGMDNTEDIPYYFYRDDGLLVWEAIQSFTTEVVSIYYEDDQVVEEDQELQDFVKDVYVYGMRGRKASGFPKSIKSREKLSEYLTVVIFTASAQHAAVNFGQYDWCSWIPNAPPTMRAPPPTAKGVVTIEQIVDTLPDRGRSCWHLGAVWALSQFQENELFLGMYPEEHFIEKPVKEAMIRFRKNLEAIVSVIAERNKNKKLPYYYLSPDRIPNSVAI
The experiment in a line: inhibition of 5-HETE synthesis by rat glycogen elicited polymorphonuclear leukocytes. The following applies: rat PMN; for inhibition at 10 µM: negative = potentiation of 5-HETE synthesis, read-out: % Inhibition of 5-LO (as 5-HETE). As for the experimental part:
The assay of this Example measures the ability of the compounds of the invention to inhibit the synthesis of 5-HETE by rat glycogen elicited polymorphonuclear leukocytes.
(§1) Peritoneal PMN are obtained from female Wistar rats (150-250 g) that received an i.p. injection of 6% glycogen (10 ml). After 24 hours, rats are killed by CO2 asphysiation and peritoneal cells are harvested by peritoneal lavage using Ca^++ and MG^++ free Hanks' balanced salt solution (HBSS). The peritoneal exudate is centrifuged at 400 g for 10 minutes. After centrifugation, the lavaged fluid is removed and the cell pellet is resuspended in HBSS containing Ca^++ and MG^++ and 10 mM L-cysteine at a concentration of 2×10^7 cells/ml. To 1 ml portions of cell suspension, test drugs or vehicle are added and incubated at 37° C. for 10 minutes. Following this preincubation, the calcium ionophore (10 μM), a23187, is added together with 0.5 μM [14 C] arachidonic acid and further incubated for 10 minutes. The reaction is stopped by the addition of ice cold water (3 ml) and acidifying to pH 3.5. Lipoxygenase products are then extracted twice into diethyl ether. The pooled ether extracts are evaporated to dryness under nitrogen and the residue is redissolved in a small volume of methanol and spotted on aluminum backed pre-coated thin layer chromatographic plates. The samples are then cochromatographed with authentic reference 5-HETE in the solvent system - hexane: ether: acetic acid (50:50:3). After chromatography, the areas associated with 5-HETE standard are identified by autoradiography, cut out and quantitated by liquid scintillation.

In the next test the test system is cyclooxygenase. The experiment in a line: inhibition of synthesis of cyclooxygenase products TxB2 and PGE2 (rat polymorphonuclear leukocytes). The following applies: rat PMN; for IC50: read-out: IC50 (inhibition of CO, as PGE2); for % Inhibition of CO (as PGE2): 10 μM, negative = potentiation of PGE2 synthesis. As for the experimental part: as §1
However, in order to determine cyclooxygenase activity, the samples are cochromatographed with authentic reference TxB2 and PGE2 in the solvent system ethyl acetate: formic acid (80:1) and the upper phase of ethyl acetate: isooctane: acetic acid: water (110:50:20:100). After chromatography, the areas associated with the TxB2 and PGE2 standards are identified by autoradiography, cut out and quantitated by liquid scintillation techniques.

Counter-ions that a name gives are not always drawn. A value given as a limit tells only on which side of the number the result lay.

With `CC(C)(C(=O)O)c1ccc2cc(OCc3nc4ccccc4s3)ccc2c1` [Example 34, α,α-Dimethyl-6-(2-benzothiazolylmethoxy)-2-naphthaleneacetic acid], at 5-lipoxygenase [1] (25 μM, human whole blood), the inhibition – broadly, the relative decrease from the control value, in per cent – at 25 µM amounted to 13%.

As for `C[C@H](C(=O)O)c1ccc2cc(OCc3nc4ccccc4n3C)ccc2c1` [Example 43, S-(α)α-Methyl-6-[(1-methyl-1H-benzimidazol-2-yl)-methoxy]-2-naphthaleneacetic acid], the inhibition at 25 µM against 5-lipoxygenase [1] (25 μM, human whole blood) turned out to be 12%.

Consider `CC(C(=O)O)c1ccc2cc(OCc3ccc4ccc(Cl)cc4n3)ccc2c1` (stereo not drawn) [Example 18, α-Methyl-6-[(7-chloro-2-quinolinyl)-methoxy]-2-naphthaleneacetic acid], for which the IC50 (as a rule, the concentration that inhibits the measured activity by half) at 5-lipoxygenase [2] (read-out: IC50 (inhibition of 5-LO, as 5-HETE)) is 11.4 µM; in the test with cyclooxygenase, greater than 50 µM.

Take `CC(C)(C(=O)O)c1ccc2cc(OCc3ccc4ccccc4n3)ccc2c1` [Example 22, α,α-Dimethyl-6-(2-quinolinylmethoxy)-2-naphthaleneacetic acid]: at 5-lipoxygenase [2], the inhibition at 10 µM is 87%. In addition, in the test on cyclooxygenase, the “% Inhibition of CO (as PGE2)” value was -28%.

`O=C(O)Cc1ccc2cc(OCc3ccc4ccccc4n3)ccc2c1` [Example 21, 6-(2-Ouinolinylmethoxy)-2-naphthaleneacetic Acid]: the inhibition at 10 µM on 5-lipoxygenase [2] was found to be 95%. The IC50 with cyclooxygenase was greater than 250 µM.

For `C[C@H](C(=O)O)c1ccc2cc(OCc3nc4ccccc4o3)ccc2c1` [Example 46, S-(+)-α-methyl-6-(2-benzoxazolylmethoxy)-2-naphthaleneacetic acid], at 5-lipoxygenase [1] (25 μM, human whole blood), the inhibition at 25 µM came out at 22%.

In the case of `CC(C(=O)O)c1ccc2cc(OCc3nc4ccccc4s3)ccc2c1` (stereo not drawn) [Example 5, α-Methyl-6-(2-benzothiazolylmethoxy)-2-naphthaleneacetic acid], on 5-lipoxygenase [2], the inhibition at 10 µM was 90%. Also, the “% Inhibition of CO (as PGE2)” value with cyclooxygenase was -35%.

As for `CCCCCOc1ccc2cc(C(C)C(=O)O)ccc2c1` (stereo not drawn) [Example 12, α-Methyl-6-(pentyloxy)-2-naphthaleneacetic acid], the inhibition at 10 µM at 5-lipoxygenase [2] is 48%. Also, the “% Inhibition of CO (as PGE2)” value in the test on cyclooxygenase is -13%.

On to `C[C@H](C(=O)O)c1ccc2cc(OCc3csc(-c4ccccc4)n3)ccc2c1` [Example 35, S-(+)-α-Methyl-6-[(2-phenyl-4-thiazolyl)-methoxy]-2-naphthaleneaceticacid], for which at 25 µM the inhibition against 5-lipoxygenase [1] (25 μM, human whole blood) was 28%.

In the case of `CC(C(=O)O)c1ccc2cc(OCc3csc(-c4ccccc4)n3)ccc2c1` (stereo not drawn) [Example 9, α-Methyl-6-[(2-phenyl-4-thiazolyl)methoxy]-2-naphthaleneacetic acid], at 5-lipoxygenase [2], the inhibition at 10 µM was 86%. Also, the “% Inhibition of CO (as PGE2)” value in the test with cyclooxygenase was -11%.

`C[C@H](C(=O)O)c1ccc2cc(OCc3nc4ccccc4s3)ccc2c1` [Example 33, S-(+)-α-Methyl-6-(2-benzothiazolylmethoxy)-2-naphthaleneacetic acid] came in with an inhibition at 25 µM against 5-lipoxygenase [1] (25 μM, human whole blood) of 54%.

Consider `CC(C)=CCOc1ccc2cc(C(C)C(=O)O)ccc2c1` (stereo not drawn) [Example 14, α-Methyl-6-(3-methyl-2-butenoxy)-2-naphthaleneacetic acid], for which the inhibition at 10 µM at 5-lipoxygenase [2] was 81%. Further, the “% Inhibition of CO (as PGE2)” value with cyclooxygenase is given as -15%.

Consider `CC(C(=O)O)c1ccc2c(Br)c(OCc3ccc4ccccc4n3)ccc2c1` (stereo not drawn) [Example 19, α-Methyl-5-bromo-6-(2-quinolinylmethoxy)-2-naphthaleneacetic acid], for which the inhibition at 10 µM on 5-lipoxygenase [2] came out at 82%. The “% Inhibition of CO (as PGE2)” value with cyclooxygenase is given as -21%.

For `C[C@H](C(=O)N(C)O)c1ccc2cc(OCc3nc4ccccc4s3)ccc2c1` [Example 41A, S-(+)-N-Hydroxy-α,N-dimethyl-6-(2-benzothiazolylmethoxy)-2-naphthaleneacetamide sodium salt hydrate], the “% Inhibition of LTB4” value on 5-lipoxygenase [1] (25 μM, human whole blood, sodium salt hydrate) amounted to 89%. For the same molecule, the IC50 on 5-lipoxygenase [1] (human whole blood, sodium salt hydrate) amounted to 12.2 µM.

`C[C@H](C(=O)O)c1ccc2cc(OCc3ccccn3)ccc2c1` [Example 42, S-(+)-α-Methyl-6-(2-pyridinylmethoxy)-2-naphthaleneacetic acid one tenth hydrate]: the inhibition at 25 µM against 5-lipoxygenase [1] (25 μM, human whole blood) stood at 11%.

Consider `CC(C(=O)O)c1ccc2cc(OCC=Cc3ccccc3)ccc2c1` (stereo not drawn) [Example 20, α-Methyl-6-[(3-phenyl-2-propenyl)oxy]-2-naphthaleneacetic acid], for which the inhibition at 10 µM at 5-lipoxygenase [2] is 89%. Also, the “% Inhibition of CO (as PGE2)” value in the test with cyclooxygenase came to 14%.

On 5-lipoxygenase [1] (3 μM, human whole blood), `CC(C)c1ccc2c(c1)c(SC(C)(C)C)c(CC(C)(C)C(=O)O)n2Cc1ccc(Cl)cc1` [L-663,536, reference compound] displayed an inhibition at 3 µM of 96%.

Regarding `CC(c1cc2ccccc2s1)N(O)C(N)=O` (stereo not drawn) [Example A-64077, reference compound], on 5-lipoxygenase [1] (read-out: % Inhibition of LTB4), the inhibition at 5 µM was 72%.

As to `CC(C)(NC(=O)NO)c1ccc2cc(OCc3nc4ccccc4s3)ccc2c1` [Example 37, N-[1-[6-(2-Benzothiazolylmethoxy)-2-naphthalenyl]-1-methyethyl]-N'-hydroxyurea], at 25 µM the inhibition at 5-lipoxygenase [1] (25 μM, human whole blood) was 43%. Also, inhibition against 5-lipoxygenase [1] (human whole blood) was half-maximal at 50.8 µM (IC50).
